From publication PMC7279249, “Synthesis of Fmoc-Triazine Amino Acids and Its Application in the Synthesis of Short Antibacterial Peptidomimetics” (International Journal of Molecular Sciences, 2020)
Values after ≈ are worked out from the molar mass of the structure shown. Read-outs that look alike come from different tables or passages of the source. Peptide text beside a SMILES is read from it.

Assays:
[1] = Analytical RP-HPLC retention time; assay type: physicochemical; conditions: C18 4.6 mm × 250 mm, 0.05% aq. TFA (A) / 0.05% TFA in CH3CN (B), 5% to 95% B in 30 min, 1.0 mL/min, 25 °C, 280 nm, method A of the Supplementary Material
Description: As described previously, all reactions were performed under argon atmosphere in flame-dried glassware using dry solvents unless otherwise noted. Anhydrous organic solvents of purity greater than 99.9% were purchased from Aldrich and used directly in the reaction. All reagents and some of the starting materials were purchased from commercial chemical suppliers, including Sigma-Aldrich, TCI, and Across Organics and used as received. Analytical thin-layer chromatography (TLC) was performed on Merck aluminum sheets with silica gel 60 F254 using 0.25 mm plates, and was visualized by ultraviolet light, staining with KMnO4 and ninhydrin. Column chromatography purification was performed on Merck silica gel 60 (70–230 mesh or 230–400 mesh). Bruker DRX-400 and DRX-500 NMR spectrometer were used for recording ^1H and ^13C NMR spectra. NMR chemical shifts (δ) are denoted in parts per million (ppm), and coupling constants (J) are given in hertz (Hz). MALDI-TOF mass was recorded using Shimadzu mass spectrometer. The crude peptidomimetics and peptides were purified by reverse-phase high-performance liquid chromatography (RP-HPLC) on Agilent HPLC system equipped with a C18 semi-preparative column (250 mm × 22 mm, 10 μm) using 0.05% aq. trifluoroacetic acid (TFA) (eluent A) and 0.05% TFA in CH3CN (eluent B) were used with a flow rate of 5.0 mL/min at 25 °C, under wavelength 280 nm. Moreover, the purity of the peptide judged to be ≥ 95% pure by analytical HPLC equipped with a C18 column (4.6 mm× 250 mm, 10 μm). Two different linear gradients of 0.05% aq. TFA (eluent A) and 0.05% TFA in CH3CN (eluent B) (gradient method, 5% of eluent B to 95% of Eluent B in 30 min; injection volume, 10 µL; concentration 10 µmol) were used with a flow rate of 1.0 mL/min at 25 °C, under wavelength 280 nm.

E. coli (KCTC 1682) = tested on: E. coli (KCTC 1682)
Description: (§1) The bacterial cells were grown overnight for 18 h at 37 °C in 10 mL of Mueller Hinton broth (MHB). The 10 μL of this culture was inoculated into 10 mL of fresh MHB and incubated for an additional 3 h at 37 °C to obtain mid-logarithmic phase organisms. Aliquots (100 μL) of bacterial cell suspension at 4 × 10^6 CFU/mL in 1% peptone were added to 100 μL of the sample solutions (serial 2-fold dilutions in 1% peptone). […] The MIC values were determined after 18 h of incubation.

[2] = tested on: Staphylococcus aureus (KCTC 1621)
Description: as §1

[3] = tested on: P. aeruginosa (KCTC 1637)
Description: as §1

[4] = tested on: Staphylococcus epidermidis (KCTC 1917)
Description: as §1

[5] = tested on: trypsin (read-out E. coli KCTC 1682); assay type: in vitro ADME
Description: (§2) Digestion of the BJK-4 and melittin by trypsin was carried out using 100 μg/mL peptide and 0.4 μg/mL trypsin in PBS, at 37 °C for 2 h. The reaction solution (50 μL) was added to 150 μL of a bacterial suspension (2 × 10^6 CFU/mL in Mueller-Hinton broth). After incubation at 37 °C for 18 h, the bacterial growth inhibition was determined by measuring absorbance at 600 nm with a microplate ELISA reader (Bio-Tek; EL 800).

[6] = tested on: trypsin (read-out S. aureus KCTC 1621); assay type: in vitro ADME
Description: as §2

[7] = Gram-negative, serial 2-fold dilutions in 1% peptone, 1 to […], 18 h incubation, lowest concentration causing 100% inhibition of growth (no visible turbidity)
[8] = Gram-positive, serial 2-fold dilutions in 1% peptone, 1 to […], 18 h incubation, lowest concentration causing 100% inhibition of growth (no visible turbidity)

| Rt, HPLC retention time [1] | MIC, E. coli (KCTC 1682) (E. coli (KCTC 1682); KCTC 1682, 18 h) | MIC, Staphylococcus aureus (KCTC 1621) ([2]; KCTC 1621, 18 h) | MIC, P. aeruginosa (KCTC 1637) ([3]; KCTC 1637, 18 h) | MIC, Staphylococcus epidermidis (KCTC 1917) ([4]; KCTC 1917, 18 h) | SMILES | MIC, E. coli (KCTC 1682) (E. coli (KCTC 1682); [7]) | MIC, Staphylococcus aureus (KCTC 1621) [2, 8] | MIC, P. aeruginosa (KCTC 1637) [3, 7] | MIC, Staphylococcus epidermidis (KCTC 1917) [4, 8] | Antimicrobial activity against E. coli after trypsin treatment [5] | Antimicrobial activity against S. aureus after trypsin treatment [6] | Antimicrobial activity against E. coli after trypsin treatment ([5]; 100 μg/mL peptide, 0.4 μg/mL trypsin in PBS, 37 °C, 2 h, then E. coli KCTC 1682 in Mueller-Hinton broth, 18 h at 37 °C, absorbance 600 nm) | Antimicrobial activity against S. aureus after trypsin treatment ([6]; 100 μg/mL peptide, 0.4 μg/mL trypsin in PBS, 37 °C, 2 h, then S. aureus KCTC 1621 in Mueller-Hinton broth, 18 h at 37 °C, absorbance 600 nm) |
| --- | --- | --- | --- | --- | --- | --- | --- | --- | --- | --- | --- | --- | --- |
| 19.6 min | >128 µg/mL | >128 µg/mL | >128 µg/mL | >128 µg/mL | CC(=O)N[C@@H](Cc1c[nH]c2ccccc12)C(=O)N[C@@H](CCCCN)C(=O)N[C@@H](Cc1c[nH]c2ccccc12)C(N)=O [BJK-9] (Ac-Trp-Lys-Trp-NH2) |  |  |  |  |  |  |  |  |
| 21.1 min | 128 µg/mL (≈ 110 µM) | 64 µg/mL (≈ 55.1 µM) | 32 µg/mL (≈ 27.6 µM) | 64 µg/mL (≈ 55.1 µM) | CC(=O)NCCNc1nc(NCC(=O)NCCNc2nc(NCC(=O)NCCNc3nc(NCC(N)=O)nc(N(Cc4ccccc4)Cc4ccccc4)n3)nc(N(CCCN)CCCN)n2)nc(N(Cc2ccccc2)Cc2ccccc2)n1 [BJK-5] |  |  |  |  |  |  |  |  |
| 14.2 min | 64 µg/mL (≈ 128 µM) | >128 µg/mL | 128 µg/mL (≈ 255 µM) | >128 µg/mL | CC(=O)N[C@@H](CCCCN)C(=O)N[C@@H](Cc1c[nH]c2ccccc12)C(=O)N[C@@H](CCCCN)C(N)=O [BJK-8] (Ac-Lys-Trp-Lys-NH2) |  |  |  |  |  |  |  |  |
|  | 64 µg/mL (≈ 82.9 µM) | 32 µg/mL (≈ 41.5 µM) | 32 µg/mL (≈ 41.5 µM) | 32 µg/mL (≈ 41.5 µM) | CC(=O)NCCNc1nc(NCC(=O)NCCNc2nc(NCC(N)=O)nc(N(Cc3ccccc3)Cc3ccccc3)n2)nc(N(CCCN)CCCN)n1 [BJK-3] |  |  |  |  |  |  |  |  |
| 15.4 min | 128 µg/mL (≈ 343 µM) | >128 µg/mL | 128 µg/mL (≈ 343 µM) | >128 µg/mL | CC(=O)N[C@@H](CCCCN)C(=O)N[C@@H](Cc1c[nH]c2ccccc12)C(N)=O [BJK-7] (Ac-Lys-Trp-NH2) |  |  |  |  |  |  |  |  |

Continued, compound first:

| SMILES | Rt, HPLC retention time [1] | MIC, E. coli (KCTC 1682) (E. coli (KCTC 1682); KCTC 1682, 18 h) | MIC, Staphylococcus aureus (KCTC 1621) ([2]; KCTC 1621, 18 h) | MIC, P. aeruginosa (KCTC 1637) ([3]; KCTC 1637, 18 h) | MIC, Staphylococcus epidermidis (KCTC 1917) ([4]; KCTC 1917, 18 h) | MIC, E. coli (KCTC 1682) (E. coli (KCTC 1682); [7]) | MIC, Staphylococcus aureus (KCTC 1621) [2, 8] | MIC, P. aeruginosa (KCTC 1637) [3, 7] | MIC, Staphylococcus epidermidis (KCTC 1917) [4, 8] | Antimicrobial activity against E. coli after trypsin treatment [5] | Antimicrobial activity against S. aureus after trypsin treatment [6] | Antimicrobial activity against E. coli after trypsin treatment ([5]; 100 μg/mL peptide, 0.4 μg/mL trypsin in PBS, 37 °C, 2 h, then E. coli KCTC 1682 in Mueller-Hinton broth, 18 h at 37 °C, absorbance 600 nm) | Antimicrobial activity against S. aureus after trypsin treatment ([6]; 100 μg/mL peptide, 0.4 μg/mL trypsin in PBS, 37 °C, 2 h, then S. aureus KCTC 1621 in Mueller-Hinton broth, 18 h at 37 °C, absorbance 600 nm) |
| --- | --- | --- | --- | --- | --- | --- | --- | --- | --- | --- | --- | --- | --- |
| CC(=O)NCCNc1nc(NCC(=O)NCCNc2nc(NCC(=O)NCCNc3nc(NCC(=O)NCCNc4nc(NCC(N)=O)nc(N(Cc5ccccc5)Cc5ccccc5)n4)nc(N(CCCN)CCCN)n3)nc(N(Cc3ccccc3)Cc3ccccc3)n2)nc(N(CCCN)CCCN)n1 [BJK-6] |  |  |  |  |  | 16 µg/mL (≈ 10.8 µM) | 16 µg/mL (≈ 10.8 µM) | 16 µg/mL (≈ 10.8 µM) | 16 µg/mL (≈ 10.8 µM) |  |  |  |  |
| CC(=O)N[C@@H](CCCCN)C(=O)N[C@@H](Cc1c[nH]c2ccccc12)C(=O)N[C@@H](CCCCN)C(=O)N[C@@H](Cc1c[nH]c2ccccc12)C(N)=O [BJK-10] (Ac-KWKW-NH2) | 17.9 min |  |  |  |  | >128 µg/mL | >128 µg/mL | >128 µg/mL | >128 µg/mL |  |  |  |  |
| CC(=O)NCCNc1nc(NCC(=O)NCCNc2nc(NCC(=O)NCCNc3nc(NCC(N)=O)nc(N(CCCN)CCCN)n3)nc(N(Cc3ccccc3)Cc3ccccc3)n2)nc(N(CCCN)CCCN)n1 [BJK-4] |  | 16 µg/mL (≈ 14.6 µM) | 16 µg/mL (≈ 14.6 µM) | 16 µg/mL (≈ 14.6 µM) | 16 µg/mL (≈ 14.6 µM) |  |  |  |  | nearly preserved | nearly preserved |  |  |
| CC[C@H](C)[C@H](NC(=O)CN)C(=O)NCC(=O)N[C@@H](C)C(=O)N[C@H](C(=O)N[C@@H](CC(C)C)C(=O)N[C@@H](CCCCN)C(=O)N[C@H](C(=O)N[C@@H](CC(C)C)C(=O)N[C@H](C(=O)N[C@H](C(=O)NCC(=O)N[C@@H](CC(C)C)C(=O)N1CCC[C@H]1C(=O)N[C@@H](C)C(=O)N[C@@H](CC(C)C)C(=O)N[C@H](C(=O)N[C@@H](CO)C(=O)N[C@@H](Cc1c[nH]c2ccccc12)C(=O)N[C@H](C(=O)N[C@@H](CCCCN)C(=O)N[C@@H](CCCNC(=N)N)C(=O)N[C@@H](CCCCN)C(=O)N[C@@H](CCCNC(=N)N)C(=O)N[C@@H](CCC(N)=O)C(=O)N[C@@H](CCC(N)=O)C(N)=O)[C@@H](C)CC)[C@@H](C)CC)[C@@H](C)O)[C@@H](C)O)C(C)C)C(C)C [melittin, reference compound] |  |  |  |  |  |  |  |  |  |  |  | completely abolished | completely abolished |
| CC(=O)NCCNc1nc(NCC(N)=O)nc(N(CCCN)CCCN)n1 [BJK-1] | 8.8 min | 128 µg/mL (≈ 335 µM) | >128 µg/mL | 128 µg/mL (≈ 335 µM) | >128 µg/mL |  |  |  |  |  |  |  |  |
| CC(=O)NCCNc1nc(NCC(N)=O)nc(N(Cc2ccccc2)Cc2ccccc2)n1 [BJK-2] | 21.8 min | >128 µg/mL | >128 µg/mL | >128 µg/mL | >128 µg/mL |  |  |  |  |  |  |  |  |
